Each structure is given as a SMILES string. Where only a bound is given, the exact number is not on record here.

A word on the melting point: it is the temperature of the solid-liquid transition. For the molecule `O=c1c2cnc(-c3ccccc3)nc2sn1CCc1ccccn1`, the melting point was 132 to 133 °C.
Molecule `CC(C)(C)c1cc(OCc2ccccc2C(=O)O)cc(C(C)(C)C)c1` had a melting point of 173 to 174 °C.
As for `OCc1nccn1CCCc1ccc(OCc2coc(/C=C/c3ccccc3)n2)cc1`, the figure is 143 to 144 °C.
As for `S=C(Cc1ccncc1)N1CCOCC1`, the figure is 162 to 163 °C.
To `CCCSc1sc(C(N)=O)c2c1-c1c(cnn1C)CC2` belongs 112 to 113 °C.
Regarding `CCc1cnc(-n2cc(CCCO)c(C(C)C)n2)nc1`, the melting point was 70 to 71 °C.
To `CN(C(=O)/C=C/c1ccco1)c1ccc(S(=O)(=O)NC2CCCCCC2)cc1` belongs 152 to 155 °C; to `O=S(=O)(Nc1cccc2cc(-c3ncns3)[nH]c12)c1cccs1`, 232 to 233 °C.
To `NCCOc1cccc2[nH]ccc12` belongs 123 to 125 °C; to `COc1ccc(-c2cccc(S(=O)(=O)N3CCC(Nc4nc(Nc5cccc(C(F)(F)F)c5)nc(OCC(F)(F)F)n4)CC3)c2)cc1`, 180 to 182 °C.
To `Fc1ccc(CN2CC=C(/C=C/c3ccccc3)CC2)cc1` belongs 115 to 117 °C; to `O=C(NCCCCC1CCSS1)N1CCSCC1` (configuration not stated), 80 to 81 °C.
`CCN1c2ccc(C)cc2C2CN(CCCC(=O)c3ccc(F)cc3)CCC21` (configuration not stated): the melting point fell in the range of 150 to 153 °C.
To `O=C1c2ccccc2-n2cncc2[C@@H]2CCCN12` belongs 211 to 212 °C; to `Cc1ncn(-c2cc(F)ccc2CNC(=O)c2nc3n(c(=O)c2OCc2ccccc2)CCN3c2ccccc2)n1`, 147 to 148 °C.
As for `CC(CN=C(c1ccccc1)c1ccccc1)N=C(c1ccccc1)c1ccccc1` (configuration not stated), the figure is 89 to 90 °C; as for `OC1(c2ccccc2Cc2cc(F)ccc2F)CCN(Cc2ccccc2)CC1`, 143 to 146 °C; as for `CC(C)(C)c1ccc(CCC2CO2)cc1NC(=O)CC1c2ccccc2Oc2ccccc21` (configuration not stated), 156 to 157 °C.
As for `C=CC(=O)N(C)c1cccc2c(=O)c(C)c(-c3ccccc3)oc12`, the figure is 136 to 137 °C; as for `COc1cccc(NC(=NC#N)NC(NC(=O)c2ccc(Cl)cc2)C(C)(C)C)c1` (configuration not stated), 173 to 175 °C; as for `S=C(NCCC1=CCCCC1)Nc1nccs1`, 147 to 148 °C.
For the molecule `CC(=O)NCCOC(=O)C(Oc1ccc(F)c(C(F)(F)F)c1)c1ccc(F)cc1` (configuration not stated), the melting point stood at 100 °C.
`CCOC(=O)[C@H]1[C@@H]2CC(=O)[C@@](N=[N+]=[N-])(C(=O)OCc3ccccc3)[C@@H]21` showed a melting point of 46 to 48 °C.
On to `Cc1cc(Br)cc(C)c1OCCO`, for which the melting point lay within 47 to 48 °C.
As for `Fc1ccc(Oc2ccc3nc(Cl)ncc3c2)c(F)c1`, the melting point lay in the range of 110 to 113 °C.
To `CC(/C=C/C(Br)=C(/C)c1ccc2c(c1)C(C)(C)CCC2(C)C)=C\C(=O)O` belongs 189 to 190 °C.
On to `CCOC(=O)Nc1ccccc1NS(=O)(=O)c1ccc(OC)cc1`, for which the melting point fell in the range of 118 to 119 °C.
Turning to `Cc1nc2c(c(=O)[nH]1)-c1cc(S(=O)(=O)Nc3ccc(F)cc3)ccc1CC2`, the melting point was over 260 °C.
As for `COCCC1(C(=O)N[C@@H](Cc2ccc(N3C(=O)c4ccc(C#N)cc4C3=O)cc2)C(=O)O)CCCC1`, the figure is 143 to 146 °C; as for `COC(=O)COc1ccc(NC(=O)/C=C/c2ccc(C#N)cc2)cc1`, 197 °C; as for `Cc1cncn1-c1cc(C(=O)O)cc(C(F)(F)F)c1`, 243 to 245 °C.
As for `Cc1nc(N2CCN(Cc3ccccc3)C2=O)sc1C(=O)NCc1ccc(F)cc1`, the melting point lay in the range of 147 to 148 °C.
To `CCCN1CCC=C(c2csc(NC(C)=O)n2)C1` belongs 109 to 112 °C; to `COc1ccc(C(=O)C=C2c3ccccc3C(=O)c3ccccc32)cc1OC`, 160 °C; to `Cc1ccc(-n2nc(C)cc2-c2ccnc(Cl)c2)cc1`, 100 °C.
In the case of `COC(=O)NC1(Cl)C=CC=CN1CC(COc1cccc2ccccc12)OC(=O)OC` (configuration not stated), the melting point lay in the range of 133 to 135 °C.
In the case of `CCOc1ccc(C2=NN(c3ccc(C(=O)N4CCN(c5cnn(-c6ccccc6)c(=O)c5Cl)CC4)cc3)C(=O)[C@@H]3CC=CC[C@H]23)cc1OCC`, the melting point fell in the range of 148 to 151 °C.
`CC(=O)N1CCN=C1COc1cccc(C)c1C`: the melting point was 127 to 130 °C.
For `O=C(O)CCC(O)c1ccc(-c2ccc(Br)cc2)cc1` (configuration not stated), the melting point was determined as 127 °C.
As for `O=c1ccoc2c(CCCc3ccccc3)c(OCc3ccccc3)ccc12`, the figure is 106 to 108 °C; as for `COc1ccc(OC)c(S(=O)(=O)n2c(CCC(=O)O)cc3cc(Cl)ccc32)c1`, 185 to 189 °C.
To `FC(F)(F)C(=Cc1ccccc1)c1ccc(Cl)cc1` belongs 63 to 66 °C; to `CC(C)C(NC(=O)OCc1nccs1)C(=O)NC(Cc1ccccc1)C(O)C(Cc1ccccc1)NC(=O)C(NC(=O)OCc1nccs1)C(C)C` (configuration not stated), 92 to 93 °C; to `COc1cc(-c2nc(=O)c3ccccc3s2)ccn1`, 149 to 150 °C.
To `COc1cccc2c(C#Cc3ccccc3)c3cccc(OC)c3c(C#Cc3ccccc3)c12` belongs 178 to 180 °C; to `Cc1ccc(C(=O)O)c(Sc2nc(C)c(CC(=O)O)s2)n1`, 223 to 225 °C.
Take `O[C@@H](COc1cccc(-c2noc3ccsc23)c1)CN1CCN(c2ccccc2Cl)CC1`: the melting point was in the range of 83 to 86 °C.
Molecule `O=C(O)CCCCCCC1C(=O)CC(=O)C1=O` (configuration not stated) returned a melting point of 102 to 104 °C.
As for `O=C(N[C@H]1CC[C@H](CCN2CCN(c3nccc4c3OCC4)CC2)CC1)c1ccc(N2CCOCC2)nc1`, the figure is 231 °C.
As for `COc1ccc2c(=O)c(-c3ccccc3)c(SCc3cccnc3)oc2c1`, the figure is 152 °C.
As for `COc1ccc(C(=O)C(N=C=S)c2ccc(OC)cc2)cc1` (configuration not stated), the figure is 155 °C; as for `CC(C)n1c(=O)c2c(-c3nc(C4CC4)no3)ncn2c2cccnc21`, 221 to 223 °C; as for `COc1cc(C2=C(c3cn(CCCNC(=O)C(N)CC(C)C)c4ccccc34)C(=O)NC2=O)cc(OC)c1OC` (configuration not stated), 172 to 173 °C.
Consider `CCOC(=O)c1cc2cccc(N(C)S(=O)(=O)c3nccn3C)c2[nH]1`, for which the melting point worked out at 120 °C.
As for `O=c1[nH]c2ccccc2c(=O)n1S(=O)(=O)c1ccccc1`, the figure is 211 to 213 °C; as for `CCOC(=NC(=O)c1cccc2ccccc12)c1ccc(Br)cc1`, 104 to 105 °C.
As for `Clc1cc(Cl)c(C#C[Si](c2ccccc2)(c2ccccc2)c2ccccc2)c(Cl)c1`, the figure is 115 to 120 °C; as for `Cn1c(=O)n(Cc2ccc3c(c2)OCO3)c(=O)c2cc(C(=O)NCc3ccc4c(c3)OCO4)ccc21`, 198 °C; as for `O=C(Nc1ccc(C(=O)N2C=C3CC=CN3Cc3ccccc32)cc1)c1ccccc1F`, 257 to 260 °C.
To `CP1(=O)c2ccccc2CN1c1cccc(C(F)(F)F)c1` (configuration not stated) belongs 161 to 163 °C.
Regarding `COc1ccc2c(=O)c(C=O)coc2c1`, the melting point was in the range of 188 to 190 °C.
Consider `COC(=O)C1=CC(C(=O)c2cc(C)ccc2O)=CN2CCc3c([nH]c4ccccc34)C12C(=O)OC` (configuration not stated), for which the melting point amounted to 197 °C.
To `CSc1ccc2nc[nH]c(=O)c2c1` belongs 203 to 204 °C; to `COc1ccc2c3c(oc2c1)CC(CC1CCN(Cc2ccccc2)CC1)C3=O` (configuration not stated), 137 to 138 °C.
As for `CCONC(=O)c1ccc(-c2cccc(CN(C)CCCc3ccccc3)c2)cn1`, the figure is 50 to 55 °C; as for `CN1CC(=O)N(c2cc(Cl)nc(Cl)c2)C1=O`, 134 °C.
`CCCn1c(=O)c2[nH]c(C3CCCO3)nc2n(CCC)c1=O` (configuration not stated) returned a melting point of 155 to 158 °C.
As for `O=C(O)C1=Cc2cc(Cl)cc(C#Cc3ccc(Cl)cc3)c2OC1C(F)(F)F` (configuration not stated), the figure is 210 to 211 °C; as for `Nc1cc(CCC(=O)NC23CC4CC(CC(C4)C2)C3)ccc1O`, 79 to 80 °C; as for `CSC(C)=NOC(=O)NCSN(P1OCC(C)(C)CO1)C(C)(C)C`, 167 to 168 °C.
Regarding `Cc1nc(N2CCN(CC3CC3)C2=O)sc1C(=O)NCc1cncc(F)c1`, the melting point was in the range of 144 to 145 °C.
As for `NC(=O)NN=Cc1ccc(OC2CCOCC2)cc1`, the figure is 208 to 209 °C; as for `Cn1c(=O)c(=O)[nH]c2cc(Cl)ccc21`, 342 °C; as for `O=C(Nc1ccc(-c2c[nH]c(=O)cn2)cc1)c1ccncc1`, 303 to 308 °C.
To `CCCCCN(CCCCC)C(=O)C(CCC(=O)O)CS(=O)(=O)c1ccc(C(C)=O)cc1` (configuration not stated) belongs 69 to 71 °C; to `CC(=O)c1cc(S(=O)(=O)c2ccccc2)ccc1OCc1ccccc1`, 80.5 to 82.4 °C; to `CC(C)Oc1cc(CCC(=O)NS(=O)(=O)C2CCCCC2)n(Cc2ccc(Cl)cc2Cl)n1`, 137 to 138 °C.
To `COc1ccc(C2=NN(c3ccc(CC(=O)O)cc3)C(=O)[C@H]3CC=CC[C@@H]23)cc1OC` (relative stereo) belongs 162 °C; to `FC(F)(F)c1cc(-n2cc(/C=C/c3nnn[nH]3)c(-c3cccc(Cl)c3)n2)cc(C(F)(F)F)c1`, 228 to 229 °C.
`CCOC(=O)c1sc(SC)c2c1CCC(NC(C)=O)C2=O` (configuration not stated) gave a melting point of 215 to 216 °C.
For `O=C(Nc1cccc(C(F)(F)F)c1)c1cccc2cc(Oc3cc(COCc4ccccc4)ncn3)ccc12`, the melting point was in the range of 123 to 124 °C.
To `O=[N+]([O-])c1ccc(CO)cc1OC1CCCC1` belongs 54 °C; to `Cc1nn2c(-c3ccc(Cl)cc3Cl)cccc2c1[N+](=O)[O-]`, 146 to 150 °C; to `CCOC(=O)c1c(C)nc2sc3c(c2c1OS(=O)(=O)C(F)(F)F)CCC1(C3)OCCO1`, 133 to 134 °C.
As for `C=C1NC(=O)N(CCCC)C1=O`, the figure is 73 °C; as for `O=C(Nc1ccc(-n2nc(C(F)(F)F)cc2C(F)(F)F)cc1)c1ccc(Cl)nc1Cl`, 115 to 117 °C; as for `CCOC(=O)COC1CC(C)(C)N(O)C(C)(C)C1`, 41 to 43 °C.

(Values after a melting point compilation (Tetko et al.; mined from patent text by program, amines drawn as free bases though some values may be those of a salt).)
